Measurements taken from patent US8669088B2, “Enzyme associated with equol synthesis” (Otsuka Pharmaceutical Co., Ltd., priority 2007, dated 2014).

Tests used:
[1] = test system: daidzein; experiment: Dihydrodaidzein biosynthesis activity in centrifuged supernatant of disrupted cell material and coenzyme dependency (Example A1); format: biochemical, Lactococcus 20-92 strain; conditions: supernatant of disrupted cells; 37° C., 2 hour; HPLC (FIG. 1)
Procedure: The frozen cells (67 mL bottle×2) were thawed, and centrifuged at 4° C. at 8,000 rpm for 10 minutes. The pellet was used in the test below. First, the pellet was suspended in 2 ml of a 0.1 M phosphate-potassium solution containing 1 mM PMSF (Wako Pure Chemical Industries, Ltd.), 2 mM DTT (Wako Pure Chemical Industries, Ltd.) and 5 mM sodium hydrosulfite (Wako Pure Chemical Industries, Ltd.). The suspension was supplied to two 2 ml tubes with screw caps (Assist) and pre-supplemented with […] zirconia/silica beads (BioSpec Products, Inc.). The cells were disrupted using FastPrep® FP100A (Thermo ELECTRON CORPORATION) (6500 rpm, 10 seconds, ice cooling×8). The resulting liquid was centrifuged to obtain supernatant. The suspension of disrupted cell was centrifuged at about 10,000 rpm at 4° C. for 10 minutes to obtain a supernatant, which was then diluted to 4.5 mL with 0.1 M potassium phosphate solution containing 1 mM PMSF, 2 mM DTT and 5 mM sodium hydrosulfite. This was used as an enzyme source.
An enzyme reaction mixture of the composition below was prepared, and the mixture was incubated at 37° C. for 2 hour. After incubation, 3 mL of ethyl acetate was added to the enzyme reaction mixture for extraction. After drying, the extract was dissolved by the mobile phase (eluent). The dissolved product was analyzed by HPLC. […]

[2] = test system: dihydrodaidzein; experiment: Tetrahydrodaidzein biosynthesis activity in centrifuged supernatant of disrupted cell material and NADH or NADPH dependency (Example B2); format: biochemical, Lactococcus 20-92 strain; conditions: centrifuged supernatant of disrupted cells; 37° C., 2 hours; HPLC (FIG. 11)
Procedure: The frozen cells were thawed and centrifuged at 4° C. for 15 minutes (5,000×G). The pellet was used in the test below. First, the pellet (wet weight 2.7 g) was suspended in 10 ml of a 0.1 M phosphate-potassium solution containing 1 mM PMSF and 5 mM sodium hydrosulfite. After preheating at 37° C. for 5 minutes, lysozyme was added in an amount of 100 mg per gram of the pellet (wet weight) to cause a reaction at 37° C. for 1.5 hours. Then, an equivalent amount of 0.1 M dipotassium phosphate solution was added to the reaction mixture, and the mixture was vigorously agitated with a vortex mixer after adding zirconia-silica beads (3 ml). The cells were then disrupted with a sonicator (Branson Sonifier Cell Disruptor 200) (3 cycles of a 5-minute sonication and a 2-minute rest). The disrupted cell suspension was centrifuged at about 10,000×G for 15 minutes to obtain a supernatant, which was then used as an enzyme source. An enzyme reaction mixture of the composition below was prepared, and was incubated at 37° C. for 2 hours. After incubation, 5 mL of ethyl acetate was added to the enzyme reaction product for extraction. Then, the product was dried to prepare a sample for HPLC analysis. [table]

[3] = test system: dihydrodaidzein synthesis enzyme gene; experiment: Induction of expression of dihydrodaidzein synthesis enzyme gene by daidzein, RT-PCR (Example A7); format: cell-based, Lactococcus 20-92 strain; conditions: 10 mg/L daidzein in modified GAM broth, eight hours, 37° C., anaerobic; RT-PCR (FIG. 6)
Procedure: Sealed Lactococcus 20-92 strain kept at 4° C. was incubated for eight hours in a modified GAM broth culture medium, that contains 10 mg/L daidzein (Funakoshi Co., Ltd.) or no daidzein, at 37° C. under an anaerobic condition. 25 mL of the culture solution was transferred to a 50 mL tube, and centrifuged for ten minutes at 3500 rpm, 4° C. The culture medium was removed by decantation and cells were collected. The collected cells were immediately frozen by liquid nitrogen. Then, the entire RNA was extracted and purified using 1 mL of TRIzol solution (Invitrogen) according to the instruction. The purified entire RNA was processed by DNase I (Invitrogen) to remove the genome DNA, and used for synthesis of first-strand cDNA.
From 2 μg of the entire RNA thus processed by DNaseI, the first-strand cDNA (reverse transcription) was synthesized using SuperScript® First-Strand Synthesis System for RT-PCR (Invitrogen). The synthesis of the first-strand cDNA was carried out using Random Hexamer mix as an extension primer according to the instruction. […] The final reaction liquid was used as a template for RT-PCR.
The dihydrodaidzein synthesis enzyme gene was amplified through RT-PCR using the four final reaction products as detailed in (2) of the present Example as templates. The expression amounts were compared with each other. […]

Row | SMILES | coenzyme dependency of the conversion of daidzein into dihydrodaidzein [1] | coenzyme dependency of the conversion of dihydrodaidzein into tetrahydrodaidzein [2] | expression of mRNA of dihydrodaidzein synthesis enzyme gene [3]
1 | NC(=O)C1=CN([C@@H]2O[C@H](COP(=O)(O)OP(=O)(O)OC[C@H]3O[C@@H](n4cnc5c(N)ncnc54)[C@H](O)[C@@H]3O)[C@@H](O)[C@H]2O)C=CC1 [NADH] | dependent | dependent | –
2 | O=c1c(-c2ccc(O)cc2)coc2cc(O)ccc12 [daidzein, 4′,7-dihydroxy isoflavone] | – | – | induced the expression of mRNA
